Molecular target: Sigma non-opioid intracellular receptor 1 (Homo sapiens, UniProt Q99720)
Test: DRUGMATRIX: Sigma1 radioligand binding (ligand: [3H] Haloperidol)
Type: cell membranes, Jurkat, Membrane
Conditions: Not Active = under 50% inhibition at 10 µM; read-out: IC50

Sigma non-opioid intracellular receptor 1, sequence (Q99720 whole entry): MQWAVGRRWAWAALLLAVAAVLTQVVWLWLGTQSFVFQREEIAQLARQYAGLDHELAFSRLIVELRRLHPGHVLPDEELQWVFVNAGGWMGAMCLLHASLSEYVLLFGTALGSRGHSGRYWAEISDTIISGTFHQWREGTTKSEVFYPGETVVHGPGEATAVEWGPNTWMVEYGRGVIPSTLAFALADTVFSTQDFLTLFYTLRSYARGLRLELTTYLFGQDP

SMILES	IC50 [nM]
CN(C)CCCC1(c2ccc(F)cc2)OCc2cc(C#N)ccc21 (centres undefined) [CITALOPRAM]	398

Same assay, conditions: Not Active = under 50% inhibition at 10 µM; read-out: Ki

SMILES	Ki [nM]
CN(C)CCCC1(c2ccc(F)cc2)OCc2cc(C#N)ccc21 (centres undefined) [CITALOPRAM]	167

Same assay, conditions: jurkat; Not Active = under 50% inhibition at 10 µM

SMILES	IC50
CC1(C)S[C@@H]2[C@H](NC(=O)[C@H](N)c3ccc(O)cc3)C(=O)N2[C@H]1C(=O)O [AMOXICILLIN]	Not Active
NS(=O)(=O)c1cc2c(cc1Cl)NCNS2(=O)=O [HYDROCHLOROTHIAZIDE]	Not Active
Oc1cccc2cccnc12 [OXYQUINOLINE]	Not Active

Molecular target: T1, Alpha-1A adrenergic receptor (Rattus norvegicus, UniProt P43140)
T1 sequence (P43140 whole entry): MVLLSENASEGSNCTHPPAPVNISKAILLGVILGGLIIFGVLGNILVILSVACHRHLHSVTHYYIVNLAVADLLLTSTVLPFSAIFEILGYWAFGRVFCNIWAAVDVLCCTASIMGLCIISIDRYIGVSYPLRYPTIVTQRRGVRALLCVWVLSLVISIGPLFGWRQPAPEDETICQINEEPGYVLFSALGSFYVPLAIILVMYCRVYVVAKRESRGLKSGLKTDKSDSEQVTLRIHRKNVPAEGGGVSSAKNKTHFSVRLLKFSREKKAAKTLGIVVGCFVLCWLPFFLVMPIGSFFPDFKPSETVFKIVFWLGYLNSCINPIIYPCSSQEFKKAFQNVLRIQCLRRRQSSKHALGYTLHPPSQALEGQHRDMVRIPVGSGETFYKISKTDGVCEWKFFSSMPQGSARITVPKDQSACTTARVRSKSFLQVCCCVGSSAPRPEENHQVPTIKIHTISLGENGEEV
Test: DRUGMATRIX: Alpha-1A adrenergic receptor radioligand binding (ligand: prazosin)
Type: cell membranes, Wistar, Submaxillary gland, Membrane
Conditions: Not Active = under 50% inhibition at 10 µM

SMILES	IC50
CC1(C)S[C@@H]2[C@H](NC(=O)[C@H](N)c3ccc(O)cc3)C(=O)N2[C@H]1C(=O)O [AMOXICILLIN]	Not Active
NS(=O)(=O)c1cc2c(cc1Cl)NCNS2(=O)=O [HYDROCHLOROTHIAZIDE]	Not Active
Oc1cccc2cccnc12 [OXYQUINOLINE]	Not Active

Same assay, conditions: Not Active = under 50% inhibition at 10 µM; read-out: IC50

SMILES	IC50 [nM]
CN(C)CCCC1(c2ccc(F)cc2)OCc2cc(C#N)ccc21 (centres undefined) [CITALOPRAM]	1760

Same assay, conditions: Not Active = under 50% inhibition at 10 µM; read-out: Ki

SMILES	Ki [nM]
CN(C)CCCC1(c2ccc(F)cc2)OCc2cc(C#N)ccc21 (centres undefined) [CITALOPRAM]	711

Molecular target: Mitogen-activated protein kinase 14 (Homo sapiens, UniProt Q16539);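 also: inhibition of p38alpha enzyme activity in a biochemical kinase assay, with myelin basic protein serving as substrate; in other assays of this panel Not Active means under 50% inhibition at 10 µM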
Parameters: species or system Escherichia coli
Conditions: not given

Mitogen-activated protein kinase 14, sequence (Q16539 whole entry): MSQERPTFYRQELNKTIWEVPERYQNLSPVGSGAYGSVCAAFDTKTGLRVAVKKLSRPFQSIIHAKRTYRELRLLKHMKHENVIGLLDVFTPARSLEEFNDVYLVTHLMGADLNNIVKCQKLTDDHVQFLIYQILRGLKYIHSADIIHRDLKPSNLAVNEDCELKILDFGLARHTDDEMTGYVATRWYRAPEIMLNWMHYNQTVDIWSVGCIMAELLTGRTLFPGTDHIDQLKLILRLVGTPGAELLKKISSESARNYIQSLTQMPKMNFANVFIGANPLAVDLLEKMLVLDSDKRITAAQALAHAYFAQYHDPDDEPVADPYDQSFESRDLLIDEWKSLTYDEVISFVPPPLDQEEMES

SMILES	IC50
CC1(C)S[C@@H]2[C@H](NC(=O)[C@H](N)c3ccc(O)cc3)C(=O)N2[C@H]1C(=O)O [AMOXICILLIN]	Not Active
NS(=O)(=O)c1cc2c(cc1Cl)NCNS2(=O)=O [HYDROCHLOROTHIAZIDE]	Not Active
Oc1cccc2cccnc12 [OXYQUINOLINE]	Not Active
CN(C)CCCC1(c2ccc(F)cc2)OCc2cc(C#N)ccc21 (centres undefined) [CITALOPRAM]	Not Active

Molecular target: Matrix metalloproteinase-9 (Homo sapiens, UniProt P14780);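 also: inhibition of isolated MMP-9 enzyme activity toward a synthetic peptide substrate, from the DrugMatrix protease screening panel; in other assays of this panel Not Active means under 50% inhibition at 10 µM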
Type: cell-based
Conditions: not given

Matrix metalloproteinase-9, sequence (P14780 whole entry): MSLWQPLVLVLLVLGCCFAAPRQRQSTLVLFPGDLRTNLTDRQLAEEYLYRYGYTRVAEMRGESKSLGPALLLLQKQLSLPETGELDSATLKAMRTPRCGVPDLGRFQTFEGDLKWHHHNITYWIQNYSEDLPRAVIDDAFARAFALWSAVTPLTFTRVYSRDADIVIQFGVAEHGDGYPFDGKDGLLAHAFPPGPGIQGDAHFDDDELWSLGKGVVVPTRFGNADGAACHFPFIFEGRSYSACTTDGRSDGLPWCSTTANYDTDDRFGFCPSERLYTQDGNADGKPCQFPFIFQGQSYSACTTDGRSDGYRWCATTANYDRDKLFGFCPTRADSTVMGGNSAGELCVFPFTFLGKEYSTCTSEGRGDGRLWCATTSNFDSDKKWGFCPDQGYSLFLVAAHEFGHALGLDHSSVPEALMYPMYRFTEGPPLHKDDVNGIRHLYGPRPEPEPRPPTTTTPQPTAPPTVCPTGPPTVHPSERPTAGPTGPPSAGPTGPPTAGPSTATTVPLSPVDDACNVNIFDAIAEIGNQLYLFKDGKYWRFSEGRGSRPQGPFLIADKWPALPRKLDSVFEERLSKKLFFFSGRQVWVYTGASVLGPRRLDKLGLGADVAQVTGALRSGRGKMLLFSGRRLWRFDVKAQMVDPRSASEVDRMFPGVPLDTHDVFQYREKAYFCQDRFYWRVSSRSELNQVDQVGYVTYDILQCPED

SMILES	IC50
CC1(C)S[C@@H]2[C@H](NC(=O)[C@H](N)c3ccc(O)cc3)C(=O)N2[C@H]1C(=O)O [AMOXICILLIN]	Not Active
NS(=O)(=O)c1cc2c(cc1Cl)NCNS2(=O)=O [HYDROCHLOROTHIAZIDE]	Not Active
Oc1cccc2cccnc12 [OXYQUINOLINE]	Not Active
CN(C)CCCC1(c2ccc(F)cc2)OCc2cc(C#N)ccc21 (centres undefined) [CITALOPRAM]	Not Active

Molecular target: Protein kinase C alpha type (Homo sapiens, UniProt P17252);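 also: inhibition of PKCalpha kinase activity measured in an enzyme assay with histone as the phosphorylation substrate; in other assays of this panel Not Active means under 50% inhibition at 10 µM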
Type: cell-based
Conditions: sf9

SMILES	IC50
CC1(C)S[C@@H]2[C@H](NC(=O)[C@H](N)c3ccc(O)cc3)C(=O)N2[C@H]1C(=O)O [AMOXICILLIN]	Not Active
NS(=O)(=O)c1cc2c(cc1Cl)NCNS2(=O)=O [HYDROCHLOROTHIAZIDE]	Not Active
Oc1cccc2cccnc12 [OXYQUINOLINE]	Not Active
CN(C)CCCC1(c2ccc(F)cc2)OCc2cc(C#N)ccc21 (centres undefined) [CITALOPRAM]	Not Active

Molecular target: T2, Muscarinic acetylcholine receptor M4 (Homo sapiens, UniProt P08173); also: in other assays of this panel Not Active means under 50% inhibition at 10 µM
T2 sequence (P08173 whole entry): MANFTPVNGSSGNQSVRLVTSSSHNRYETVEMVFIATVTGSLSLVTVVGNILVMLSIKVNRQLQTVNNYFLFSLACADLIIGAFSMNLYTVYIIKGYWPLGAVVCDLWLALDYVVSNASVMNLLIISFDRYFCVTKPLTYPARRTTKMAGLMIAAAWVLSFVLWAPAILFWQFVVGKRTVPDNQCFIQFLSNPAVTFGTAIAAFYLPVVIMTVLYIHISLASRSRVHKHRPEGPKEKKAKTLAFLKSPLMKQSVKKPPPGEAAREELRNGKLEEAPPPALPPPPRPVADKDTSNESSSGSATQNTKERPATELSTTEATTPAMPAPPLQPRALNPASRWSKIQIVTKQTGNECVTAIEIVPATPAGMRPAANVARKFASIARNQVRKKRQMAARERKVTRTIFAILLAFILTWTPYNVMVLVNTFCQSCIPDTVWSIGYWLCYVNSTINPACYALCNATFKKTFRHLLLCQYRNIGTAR
Type: cell membranes, CHO-K1, Membrane
Conditions: cho-k1

SMILES	IC50
CC1(C)S[C@@H]2[C@H](NC(=O)[C@H](N)c3ccc(O)cc3)C(=O)N2[C@H]1C(=O)O [AMOXICILLIN]	Not Active
NS(=O)(=O)c1cc2c(cc1Cl)NCNS2(=O)=O [HYDROCHLOROTHIAZIDE]	Not Active
Oc1cccc2cccnc12 [OXYQUINOLINE]	Not Active
CN(C)CCCC1(c2ccc(F)cc2)OCc2cc(C#N)ccc21 (centres undefined) [CITALOPRAM]	Not Active

Molecular target: T3, B2 bradykinin receptor (Homo sapiens, UniProt P30411); also: in other assays of this panel Not Active means under 50% inhibition at 10 µM
T3 sequence (P30411 whole entry): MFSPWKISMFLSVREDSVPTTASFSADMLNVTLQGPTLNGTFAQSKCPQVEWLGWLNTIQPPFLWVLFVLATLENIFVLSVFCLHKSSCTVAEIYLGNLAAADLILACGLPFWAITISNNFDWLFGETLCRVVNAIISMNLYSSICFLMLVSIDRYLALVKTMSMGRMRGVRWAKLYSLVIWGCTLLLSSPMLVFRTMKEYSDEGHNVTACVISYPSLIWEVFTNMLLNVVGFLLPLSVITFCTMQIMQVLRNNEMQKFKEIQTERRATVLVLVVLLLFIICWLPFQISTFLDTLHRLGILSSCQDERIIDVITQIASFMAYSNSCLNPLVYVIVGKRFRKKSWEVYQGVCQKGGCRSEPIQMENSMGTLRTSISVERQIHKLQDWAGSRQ
Type: cell membranes, Membrane
Conditions: chem-1

SMILES	IC50
CC1(C)S[C@@H]2[C@H](NC(=O)[C@H](N)c3ccc(O)cc3)C(=O)N2[C@H]1C(=O)O [AMOXICILLIN]	Not Active
NS(=O)(=O)c1cc2c(cc1Cl)NCNS2(=O)=O [HYDROCHLOROTHIAZIDE]	Not Active
Oc1cccc2cccnc12 [OXYQUINOLINE]	Not Active
CN(C)CCCC1(c2ccc(F)cc2)OCc2cc(C#N)ccc21 (centres undefined) [CITALOPRAM]	Not Active

Molecular target: Vascular endothelial growth factor receptor 1 (Homo sapiens, UniProt P17948); also: in other assays of this panel Not Active means under 50% inhibition at 10 µM
Type: cell-based
Conditions: huvec

Vascular endothelial growth factor receptor 1, sequence (P17948 whole entry): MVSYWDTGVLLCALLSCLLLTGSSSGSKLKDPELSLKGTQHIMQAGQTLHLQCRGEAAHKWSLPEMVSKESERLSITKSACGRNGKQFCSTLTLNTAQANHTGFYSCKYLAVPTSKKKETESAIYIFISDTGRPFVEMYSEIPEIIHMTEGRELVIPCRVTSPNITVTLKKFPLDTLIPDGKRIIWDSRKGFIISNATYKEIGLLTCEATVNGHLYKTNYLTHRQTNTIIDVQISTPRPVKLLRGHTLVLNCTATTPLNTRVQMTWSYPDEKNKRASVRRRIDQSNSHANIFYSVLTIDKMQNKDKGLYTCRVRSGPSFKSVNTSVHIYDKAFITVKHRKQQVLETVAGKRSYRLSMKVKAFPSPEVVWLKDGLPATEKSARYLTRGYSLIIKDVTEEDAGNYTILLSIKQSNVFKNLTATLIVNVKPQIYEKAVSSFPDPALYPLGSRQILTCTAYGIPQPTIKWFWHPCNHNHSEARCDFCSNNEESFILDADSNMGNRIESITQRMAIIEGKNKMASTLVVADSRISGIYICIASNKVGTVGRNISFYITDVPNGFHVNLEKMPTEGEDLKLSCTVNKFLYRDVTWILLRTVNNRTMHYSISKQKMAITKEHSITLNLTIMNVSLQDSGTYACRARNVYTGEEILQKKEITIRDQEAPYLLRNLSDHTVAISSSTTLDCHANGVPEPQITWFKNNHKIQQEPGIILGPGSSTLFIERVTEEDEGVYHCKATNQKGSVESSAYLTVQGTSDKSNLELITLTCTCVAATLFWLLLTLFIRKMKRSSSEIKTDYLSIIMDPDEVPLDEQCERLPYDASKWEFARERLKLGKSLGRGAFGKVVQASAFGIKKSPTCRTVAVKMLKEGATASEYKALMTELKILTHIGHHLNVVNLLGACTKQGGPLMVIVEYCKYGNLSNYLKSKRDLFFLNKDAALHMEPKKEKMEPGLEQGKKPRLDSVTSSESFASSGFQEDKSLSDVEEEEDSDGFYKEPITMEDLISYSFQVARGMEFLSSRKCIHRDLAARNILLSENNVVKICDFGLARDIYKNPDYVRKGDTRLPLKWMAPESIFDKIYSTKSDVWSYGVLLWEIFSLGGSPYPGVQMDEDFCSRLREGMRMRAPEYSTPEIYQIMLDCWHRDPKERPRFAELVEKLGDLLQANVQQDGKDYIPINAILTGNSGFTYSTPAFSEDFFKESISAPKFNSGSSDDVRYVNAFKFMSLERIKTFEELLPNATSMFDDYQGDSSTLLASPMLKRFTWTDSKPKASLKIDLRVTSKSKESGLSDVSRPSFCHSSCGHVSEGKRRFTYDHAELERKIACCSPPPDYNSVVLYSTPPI

SMILES	IC50
CC1(C)S[C@@H]2[C@H](NC(=O)[C@H](N)c3ccc(O)cc3)C(=O)N2[C@H]1C(=O)O [AMOXICILLIN]	Not Active
NS(=O)(=O)c1cc2c(cc1Cl)NCNS2(=O)=O [HYDROCHLOROTHIAZIDE]	Not Active
Oc1cccc2cccnc12 [OXYQUINOLINE]	Not Active
CN(C)CCCC1(c2ccc(F)cc2)OCc2cc(C#N)ccc21 (centres undefined) [CITALOPRAM]	Not Active

Molecular target: Nitric oxide synthase 1 (Rattus norvegicus, UniProt P29476); also: in other assays of this panel Not Active means under 50% inhibition at 10 µM
Type: tissue-based, Cerebellum
Conditions: not given

SMILES	IC50
CC1(C)S[C@@H]2[C@H](NC(=O)[C@H](N)c3ccc(O)cc3)C(=O)N2[C@H]1C(=O)O [AMOXICILLIN]	Not Active
NS(=O)(=O)c1cc2c(cc1Cl)NCNS2(=O)=O [HYDROCHLOROTHIAZIDE]	Not Active
Oc1cccc2cccnc12 [OXYQUINOLINE]	Not Active
CN(C)CCCC1(c2ccc(F)cc2)OCc2cc(C#N)ccc21 (centres undefined) [CITALOPRAM]	Not Active

Molecular target: Delta-type opioid receptor (Homo sapiens, UniProt P41143); also: in other assays of this panel Not Active means under 50% inhibition at 10 µM
Type: cell membranes, HEK293, Membrane
Conditions: hek293

Delta-type opioid receptor, sequence (P41143 whole entry): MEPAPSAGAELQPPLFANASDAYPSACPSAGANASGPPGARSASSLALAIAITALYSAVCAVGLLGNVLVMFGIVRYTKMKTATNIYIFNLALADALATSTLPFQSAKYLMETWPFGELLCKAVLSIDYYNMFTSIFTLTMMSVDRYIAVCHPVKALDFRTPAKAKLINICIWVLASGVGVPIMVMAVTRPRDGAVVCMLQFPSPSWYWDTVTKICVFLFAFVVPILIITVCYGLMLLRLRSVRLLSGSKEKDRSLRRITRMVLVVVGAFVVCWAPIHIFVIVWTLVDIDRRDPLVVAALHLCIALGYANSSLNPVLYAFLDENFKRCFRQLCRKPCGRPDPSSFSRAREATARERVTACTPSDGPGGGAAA

SMILES	IC50
CC1(C)S[C@@H]2[C@H](NC(=O)[C@H](N)c3ccc(O)cc3)C(=O)N2[C@H]1C(=O)O [AMOXICILLIN]	Not Active
NS(=O)(=O)c1cc2c(cc1Cl)NCNS2(=O)=O [HYDROCHLOROTHIAZIDE]	Not Active
Oc1cccc2cccnc12 [OXYQUINOLINE]	Not Active
CN(C)CCCC1(c2ccc(F)cc2)OCc2cc(C#N)ccc21 (centres undefined) [CITALOPRAM]	Not Active

Molecular target: T4, Progesterone receptor (Bos taurus, UniProt Q690N0)
T4 sequence (Q690N0 whole entry): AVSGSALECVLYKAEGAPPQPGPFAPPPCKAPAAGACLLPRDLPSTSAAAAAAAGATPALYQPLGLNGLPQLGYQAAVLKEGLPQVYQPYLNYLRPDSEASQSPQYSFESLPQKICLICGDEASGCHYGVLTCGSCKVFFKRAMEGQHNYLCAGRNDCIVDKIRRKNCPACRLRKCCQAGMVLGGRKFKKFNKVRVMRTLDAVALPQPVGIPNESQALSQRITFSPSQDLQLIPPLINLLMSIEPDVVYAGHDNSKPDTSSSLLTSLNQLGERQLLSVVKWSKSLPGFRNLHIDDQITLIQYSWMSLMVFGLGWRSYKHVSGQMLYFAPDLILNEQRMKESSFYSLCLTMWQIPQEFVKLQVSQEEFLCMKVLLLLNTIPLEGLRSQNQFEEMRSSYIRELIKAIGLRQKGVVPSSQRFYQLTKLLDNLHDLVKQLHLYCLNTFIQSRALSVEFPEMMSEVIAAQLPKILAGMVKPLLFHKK
Test: DRUGMATRIX: Progesterone radioligand binding (ligand: [3H] R-5020)
Type: tissue-based, Uterus
Conditions: Not Active = under 50% inhibition at 10 µM

SMILES	IC50
CC1(C)S[C@@H]2[C@H](NC(=O)[C@H](N)c3ccc(O)cc3)C(=O)N2[C@H]1C(=O)O [AMOXICILLIN]	Not Active
NS(=O)(=O)c1cc2c(cc1Cl)NCNS2(=O)=O [HYDROCHLOROTHIAZIDE]	Not Active
Oc1cccc2cccnc12 [OXYQUINOLINE]	Not Active
CN(C)CCCC1(c2ccc(F)cc2)OCc2cc(C#N)ccc21 (centres undefined) [CITALOPRAM]	Not Active

System: not listed separately
Test: DRUGMATRIX: Serotonin (5-Hydroxytryptamine) 5-HT3 radioligand binding (ligand: [3H] GR-65630)
Type: cell membranes, Membrane
Conditions: hek293; Not Active = under 50% inhibition at 10 µM

SMILES	IC50	Ki
CC1(C)S[C@@H]2[C@H](NC(=O)[C@H](N)c3ccc(O)cc3)C(=O)N2[C@H]1C(=O)O [AMOXICILLIN]	Not Active	Not Active
NS(=O)(=O)c1cc2c(cc1Cl)NCNS2(=O)=O [HYDROCHLOROTHIAZIDE]	Not Active	Not Active
Oc1cccc2cccnc12 [OXYQUINOLINE]	Not Active	Not Active
CN(C)CCCC1(c2ccc(F)cc2)OCc2cc(C#N)ccc21 (centres undefined) [CITALOPRAM]	Not Active	Not Active
